{
  "source": "ChEMBL document CHEMBL1142772",
  "about": "“Discovery and SAR of biaryl piperidine MCH1 receptor antagonists through solid-phase encoded combinatorial synthesis” (Bioorg Med Chem Lett, 2005)",
  "test": "Area under curve (time =0-6 hours)",
  "type": "ADME",
  "design": "time < 6 hr",
  "settings": "rat",
  "data": [
    {"smiles": "CN1CCC(CNC(=O)Nc2cc(Cl)cc(Cl)c2)(c2ccc(-c3cccnc3)cc2)CC1", "values": [
      {"measurement": "AUC", "result": 1.4, "unit": "µM"}
    ]}
  ]
}
